# Earlier results in US7618987B2, “Acylated piperidine derivatives as melanocortin 4-receptor agonists” (Merck & Co., Inc., priority 2004, dated 2009).
# Key:
# [1] = in vivo, po
# [2] = system: males with psychogenic erectile dysfunction
substance,measurement,setting,value
Ac-Nle-c[Asp-His-DPhe-Arg-Trp-Lys]-NH2 [MT-II],absorption into the systemic circulation,[1],not absorbed into the systemic circulation
same,adverse reactions observed,[2]; in vivo,"nausea, flushing, loss of appetite, stretching, and yawning"
same,duration of action,[2]; in vivo,approximately 2.5 hours
same,time to onset of erection,[2]; in vivo,10 to 20 min
same,response rate,[2]; injected intramuscularly or subcutaneously,75%
